According to publication PMC10804683, “Identification of the pyridoxal 5′‐phosphate allosteric site in human pyridox(am)ine 5′‐phosphate oxidase” (Protein Science : A Publication of the Protein Society, 2024):
Where a chain is given by its changes, count along the chain named. “Also recorded” adds a separate entry of the source.

Assays:
human PNPO wild type = target: T1, human PNPO wild type (Homo sapiens, UniProt Q9NVS9); set-up: a main form corresponding to the entire protein; made in house; host or cells: E. coli BL21(DE3); method as in Barile et al. ([2020]); conditions: DSF, ref Barile et al. ([2020]), read-out: PLP binding KD^DSF; cited from earlier work
T1 sequence (Q9NVS9 1-261): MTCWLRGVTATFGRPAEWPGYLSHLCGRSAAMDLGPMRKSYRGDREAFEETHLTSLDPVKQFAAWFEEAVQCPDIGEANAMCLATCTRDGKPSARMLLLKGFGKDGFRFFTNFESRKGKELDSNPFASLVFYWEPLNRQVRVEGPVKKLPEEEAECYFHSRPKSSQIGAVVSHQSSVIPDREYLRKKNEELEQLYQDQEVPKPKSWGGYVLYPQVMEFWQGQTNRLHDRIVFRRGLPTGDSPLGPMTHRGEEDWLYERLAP

[1] = target: T2, human PNPO 1-31del variant (Homo sapiens, UniProt Q9NVS9); assay: PLP binding by DSF, 1-31del; conditions: 50 mM Na-HEPES pH 7.6, 2 μM enzyme
T2 construct: a main form corresponding to the entire protein; made in house; host or cells: E. coli BL21(DE3)
T2 sequence (Q9NVS9 32-261): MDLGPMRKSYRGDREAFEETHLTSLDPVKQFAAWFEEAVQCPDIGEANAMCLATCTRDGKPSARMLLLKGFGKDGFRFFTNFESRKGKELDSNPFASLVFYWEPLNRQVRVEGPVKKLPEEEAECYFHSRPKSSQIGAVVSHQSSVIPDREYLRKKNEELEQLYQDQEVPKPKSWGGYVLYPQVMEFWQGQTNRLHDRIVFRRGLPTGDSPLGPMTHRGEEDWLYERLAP
Description: FIGURE 2 DSF measurements with F48A (a), F48A/E50L/R258L (b), F48A/E50L/H248N/R258L (c), and 1‐31del PNPO variants in the presence of different PLP concentrations. Upper panels: Fluorescence change is expressed as fractional variation as a function of temperature. The experiment was carried out using 2 μM enzyme and different PLP concentrations (0, 0.78, 1.56, 3.13, 6.25, 12.5, 25, and 50 μM). Thermal denaturation data are fitted to the Boltzmann equation to obtain melting temperatures. Each curve is the average of three independent experiments with standard error bars. Lower panels: Saturation curves obtained by plotting the melting temperatures as a function of the PLP concentration. […] (μM)' of each lower plot.

[2] = target: T3, human PNPO F48A/E50L/R161C/R258L variant (Homo sapiens, UniProt Q9NVS9, E50L/F48A/R161C/R258L); assay: PLP binding by DSF, F48A/E50L/R161C/R258L
T3 construct: a main form corresponding to the entire protein; made in house; host or cells: E. coli BL21(DE3)
T3 sequence (Q9NVS9 1-261 F48A/E50L/R161C/R258L): T1 sequence (Q9NVS9 1-261) with F48A, E50L, R161C, R258L
Excerpt: (§1) PLP binding to PNPO can be detected and quantitatively measured using differential scanning fluorimetry (DSF) and also by measuring FMN fluorescence changes. We had previously attributed DSF changes to PLP binding at the active site, while FMN fluorescence changes were attributed to PLP binding at the allosteric site (Barile et al., [2019], [2020]). Previous experiments carried out with the PNPO R161C variant, affecting a residue that is essential for substrate binding and catalysis (and therefore also for PLP binding at the active site), confirms that DSF measurements only report PLP binding at the active site (Barile et al., [2021]; Table 1). The dissociation constant values obtained with DSF are almost the same for the three variants and doubled with respect to the wild type enzyme (Figure 2, Table 1). This behavior reflects the decrease of affinity of these variants for the substrates compared to the wild type PNPO. We expected to observe no FMN fluorescence changes upon titration of the variants with PLP. However, this was not the case, and the dissociation constant values obtained by observing the FMN fluorescence emission were only up to threefold larger in the variants with respect to wild type PNPO (Figure 3). […] To check the second possibility, we measured intrinsic fluorescence changes of wild type and variant apo‐forms (i.e., without FMN) upon PLP titration. […]

[3] = target: T4, apo-PNPO F48A/E50L/R161C/R258L (Homo sapiens, UniProt Q9NVS9, E50L/F48A/R161C/R258L); assay: PLP binding by intrinsic fluorescence, apo F48A/E50L/R161C/R258L; conditions: excitation 280 nm, 100 nM enzyme
T4 construct: together with a main form corresponding to the entire protein (estimated molecular mass of 31.0 ± 0.7 kDa); made in house; host or cells: E. coli BL21(DE3)
T4 sequence (Q9NVS9 1-261 F48A/E50L/R161C/R258L): T1 sequence (Q9NVS9 1-261) with F48A, E50L, R161C, R258L
Excerpt: as §1, with “The dissociation constant values obtained with DSF are almost the same for the three variants and doubled with respect to the wild type enzyme (Figure 2, Table 1). This behavior reflects the decrease of affinity of these variants for the substrates compared to the wild type PNPO.” left out
Analyses of PLP binding, based on FMN fluorescence increase observed upon binding of PLP to PNPO, were performed as described in Barile et al. ([2020]). […] Emission spectra were recorded from […], with excitation and emission slits set at 3 and 5 nm, respectively. […]

Kd [1]: 3 ± 0.3 µM | PLP binding KD^DSF [2]: No binding
Structure (SMILES): Cc1ncc(COP(=O)(O)O)c(C=O)c1O [PLP, pyridoxal 5′‐phosphate]
Kd (human PNPO wild type): 3.2 ± 0.2 µM | Apo-enzyme PLP binding KD^FLUO [3]: no variation in the emitted fluorescence was observed; also recorded: No binding
